The values below come from patent US20240175881A1, “SIMPLIFIED METHODS FOR MEASURING LIVER FUNCTION” (HepQuant, LLC, priority 2022, published 2024).

In experiment [1] the test system is patients with well-compensated (Child-Pugh A) NASH cirrhosis. Kind of experiment: Risk ACE from simplified cholate tests (SHUNT V2.0, DuO) in open-label resmetirom arm of MAESTRO-NAFLD-1. Format: in vivo, human. The text has this:
MAESTRO-NAFLD-1 (NCT04197479) was a 52-week Phase 3 trial to evaluate the safety and tolerability of resmetirom, a thyroid hormone receptor-β agonist being studied for the treatment of NASH. (Harrison et al., Lancet 2019, 394:2012-24). MAESTRO-NAFLD-1 included an open-label active resmetirom treatment arm in patients with well-compensated (Child-Pugh A [CP-A]) NASH cirrhosis (FIG. 23).
Methods: Subjects (n=34) with compensated NASH cirrhosis underwent baseline testing and subsequent retesting at 28 and 48 weeks. Eligibility included at least 3 metabolic risk factors and NASH cirrhosis diagnosed by liver biopsy or accepted criteria
AUCs were calculated by a compartmental model (McRae et al., 2023 Translational Res. 252:53-63). For SHUNT V2.0: IV and oral data at 20 and 60 minutes were employed. For DuO: only oral data at 20 and 60 minutes were employed.
Risk ACE was calculated for each subject from the baseline and weeks 28 and 48 disease severity index (DSI). A Poisson model (Risk ACE) estimated the annual clinical event rate based on 220 subjects with 52 clinical events from the HALT-C Trial. The result is an event rate (clinical events per person-year). • Model A: Relationship with baseline DSI (denoted by dsi0):
Y=β0+β1dsi0 • Model D: Relationship with baseline DSI and change in DSI (denoted dsiΔ)
Difference from baseline is represented by the difference of Risk ACE Model A and Model D (Table 26).

In experiment [2] the test system is subjects with Child-Pugh A cirrhosis and a liver stiffness measurement of >15 kPa. The note with it: HepQuant SHUNT test; cited from earlier work.

With `CC(C)c1cc(Oc2c(Cl)cc(-n3nc(C#N)c(=O)[nH]c3=O)cc2Cl)n[nH]c1=O` [Resmetirom], the “subjects in whom Risk ACE decreased” value in experiment [1] (DuO test, 28 weeks vs baseline) is given as 21 of 23; in experiment [1] (DuO test, 48 weeks vs baseline) it was 19 of 23; in experiment [1] (SHUNT V2.0 test, 28 weeks vs baseline), 20 of 23; in experiment [1] (SHUNT V2.0 test, 48 weeks vs baseline) it was 19 of 23. For the same molecule, the “Δ Risk ACE” value in experiment [1] (DuO test, Baseline - Week 28 of resmetirom) is −0.0182 clinical events per person-year; in experiment [1] (DuO test, Baseline - Week 28 of resmetirom, listed as resmetirom), “significant decrease”; in experiment [1] (DuO test, Baseline - Week 48 of resmetirom) it was −0.0355 clinical events per person-year; in experiment [1] (DuO test, Baseline - Week 48 of resmetirom, listed as resmetirom), −0.0355 clinical events per person-yea; in experiment [1] (SHUNT V2.0 test, Baseline - Week 28 of resmetirom), −0.0174 clinical events per person-year; in experiment [1] (SHUNT V2.0 test, Baseline - Week 28 of resmetirom, listed as resmetirom) it was −0.0170 clinical events per person-yea. Besides, the “Δ Risk ACE” value in experiment [1] (SHUNT V2.0 test, Baseline - Week 48 of resmetirom) is −0.0325 clinical events per person-year; in experiment [1] (SHUNT V2.0 test, Baseline - Week 48 of resmetirom, listed as resmetirom), −0.0325 clinical events per person-yea. For the same molecule, the “estimated clinical event rate” value in experiment [1] (simplified cholate tests, after 28 weeks of resmetirom) is “reduction in estimated clinical event rate”.

For the molecule `CCOc1c(C(=O)O)cnn1-c1cccc(-c2cccc(C)c2OCc2ccc3c(c2C)CCN(C2CCOCC2)C3)n1` [BI 685509], the hepatic function entry in experiment [2] is given as “improves hepatic function”.
